Tests used:
[1] = system: matrix metalloprotease-1 (MMP-1); assay: MMP-1 inhibitory effect: free MMP-1 in media of UV-irradiated HS68 fibroblasts (kit, Amersham RPN2610); type: cell-based; settings: 5 μM, UV 30 mJ, treated twice for 48 hours, corrected with control without test substance
Method: In order to confirm the inhibitory effect of Ganoderma lucidum extracts extracted with the aqueous cyclodextrin solution according to the present disclosure on matrix metalloprotease-1 (MMP-1) expression increased by ultraviolet rays, fibroblasts cells (HS68) were seeded at a concentration of 0.75*10^5 in each well of a 12 well plate and made to be a starvation state for 24 hours, then washed with phosphate buffered saline and irradiated with UV (30 mJ). Subsequently, as a positive control, 1, 10, and 50 ppm of Ganoderma lucidum extracts extracted with 5 μM of retinoic Acid (RA) and an aqueous cyclodextrin solution were treated twice for 48 hours, and the amount of free MMP-1 in the media was measured using a kit (Amersham, RPN2610).

collagenase = assay: Collagenase production/expression in human fibroblasts (antibody-based absorbance at 405 nm); type: cell-based; settings: 5 μM, 24 hours, untreated group = 100
Method: The inhibitory ability of Ganoderma lucidum extracts extracted with the aqueous cyclodextrin solution according to the present disclosure on collagenase production was measured in comparison with retinoic acid. Human fibroblasts were added at 5,000 cells/well in a 96-well microtiter plate containing Dulbecco's Modified Eagle's Media (DMEM) medium containing 2.5% fetal bovine serum and incubated in an incubator (5% CO2, 37° C.) until the growth reached 70 to 80%. Then, the Ganoderma lucidum extracts, which were extracted using the 1% β-CD aqueous cyclodextrin solution in combination with ultrasonic extraction, were treated with the cells at a concentration of 100 μg/ml for 24 hours, and then the cell culture solution was collected.
Then, the degree of collagenase production in the thus-collected cell culture solution was measured using a commercially available collagenase measuring instrument (GE Healthcare Life Sciences). […]
The absorbance of the yellowish 96-well plate was measured at 405 nm using an absorptiometer, and the expression level of collagenase was calculated by Calculation Equation 1 below. In particular, the reaction absorbance of the collected cell culture solution in the untreated group was taken as the absorbance of the control group. […]
A: Absorbance of the test substance-treated cell group
B: Absorbance of control group […]

CC1=C(/C=C/C(C)=C/C=C/C(C)=C/C(=O)O)C(C)(C)CCC1 [Retinoic acid, retinoic Acid]
Extracellular MMP-1 (% of control) [1]: 66.2% of control
Degree of Collagenase Expression (%) (collagenase): 75.0%

Source: US11433019B2, “Ganoderma lucidum extract-preparing method using eco-friendly extraction technique, Ganoderma lucidum extract prepared thereby, and anti-aging cosmetic composition comprising same extract” (AMOREPACIFIC CORPORATION, priority 2017, dated 2022)
